Assay results: PubChem BioAssay (NCI)
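Cultured in 96-well plates, cells were exposed to test compound for 48 hours across five concentrations. The concentration for 50% growth inhibition is given as GI50. TGI: total growth inhibition.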

Experiments:
Assay in all cases: DTP human tumour cell line panel, 48 h
SW-620 colon = system: SW-620 colon
A549 NSCLC = system: A549 NSCLC
HCC-2998 colon = system: HCC-2998 colon
DMS 114 small cell lung = system: DMS 114 small cell lung
UACC-257 melanoma = system: UACC-257 melanoma
SF-268 CNS = system: SF-268 CNS
MDA-N = system: MDA-N
CAKI-1 renal = system: CAKI-1 renal
T-47D breast = system: T-47D breast
NCI/ADR-RES ovarian = system: NCI/ADR-RES ovarian

SMILES | TGI (SW-620 colon) [µM] | TGI (A549 NSCLC) [µM] | TGI (HCC-2998 colon) [µM] | TGI (DMS 114 small cell lung) [µM] | TGI (UACC-257 melanoma) [µM] | TGI (SF-268 CNS) [µM] | TGI (MDA-N) [µM] | TGI (CAKI-1 renal) [µM] | TGI (T-47D breast) [µM] | TGI (NCI/ADR-RES ovarian) [µM] | GI50 (SW-620 colon) [µM] | GI50 (A549 NSCLC) [µM] | GI50 (HCC-2998 colon) [µM] | GI50 (DMS 114 small cell lung) [µM] | GI50 (UACC-257 melanoma) [µM] | GI50 (SF-268 CNS) [µM] | GI50 (CAKI-1 renal) [µM]
CC(=O)Oc1cccc2c1C(=O)C(Br)(Br)CCC2 | 9.13 | 40 | 31.1 | 7.79 | 25 | 42.7 | 12.8 | 10.7 | 4.61 |  |  |  |  |  |  |  | 
CN(C)CCCn1c2c3ccccc3ccc2c2oc(=O)c3ccccc3c21 | 7.95 | 11 | 2.46 | 4.09 | 19.1 | 13.4 |  | 27.6 | > 100 | > 26.9 |  |  |  |  |  |  | 
CC(=O)OC[C@@H]1[C@H]2CC(=O)O[C@H]2C[C@H]1OC(C)=O | > 100 | > 100 | > 100 | > 100 | > 100 | > 100 |  | > 100 |  |  |  |  |  |  |  |  | 
COc1ccc(C=NC23CC4CC(CC(C4)C2)C3)cc1 | > 100 | > 100 | > 100 | > 100 | > 100 | > 100 |  | > 100 |  |  |  |  |  |  |  |  | 
O=C(Nc1nccs1)c1cc(C2=CC=CC([N+](=O)[O-])C=C2)nc(=S)[nH]1 (configuration not stated) | > 100 | > 100 | > 100 | > 100 | > 100 | > 100 |  | > 100 |  |  |  |  |  |  |  |  | 
COC1CC(OS(=O)(=O)c2ccc(C)cc2)C(OS(=O)(=O)c2ccc(C)cc2)C(COS(=O)(=O)c2ccc(C)cc2)O1 (configuration not stated) | 57.7 | 19.3 | 49.3 | 15.1 | 21 | 3.02 |  | 7.7 |  |  |  |  |  |  |  |  | 
C=CCN=C1N=C(CC(=O)OCC)CS1 | > 100 | > 100 | > 100 | > 100 | > 100 | > 100 |  | > 100 |  |  |  |  |  |  |  |  | 
CC[O-].CC[O-].O=Nc1ccc2cc([O-])ccc2c1.O=Nc1ccc2cc([O-])ccc2c1.[Ti+4] | 4.06 | 4.85 | 14.2 | 6.06 | 3.14 | 5.78 |  | 12.2 |  |  | 1.97 | 2.14 | 3.3 | 1.95 | 1.61 | 2.29 | 3.76
